Earlier results, collected in patent US12653843B2, “Compositions comprising extracellular matrix of primitive animal species and related methods” (University of Pittsburgh—Of the Commonwealth System of …, priority 2016, dated 2026).

Target: ErbB2 (Homo sapiens, UniProt P04626)
Sequence (P04626 23-1255, species assumed): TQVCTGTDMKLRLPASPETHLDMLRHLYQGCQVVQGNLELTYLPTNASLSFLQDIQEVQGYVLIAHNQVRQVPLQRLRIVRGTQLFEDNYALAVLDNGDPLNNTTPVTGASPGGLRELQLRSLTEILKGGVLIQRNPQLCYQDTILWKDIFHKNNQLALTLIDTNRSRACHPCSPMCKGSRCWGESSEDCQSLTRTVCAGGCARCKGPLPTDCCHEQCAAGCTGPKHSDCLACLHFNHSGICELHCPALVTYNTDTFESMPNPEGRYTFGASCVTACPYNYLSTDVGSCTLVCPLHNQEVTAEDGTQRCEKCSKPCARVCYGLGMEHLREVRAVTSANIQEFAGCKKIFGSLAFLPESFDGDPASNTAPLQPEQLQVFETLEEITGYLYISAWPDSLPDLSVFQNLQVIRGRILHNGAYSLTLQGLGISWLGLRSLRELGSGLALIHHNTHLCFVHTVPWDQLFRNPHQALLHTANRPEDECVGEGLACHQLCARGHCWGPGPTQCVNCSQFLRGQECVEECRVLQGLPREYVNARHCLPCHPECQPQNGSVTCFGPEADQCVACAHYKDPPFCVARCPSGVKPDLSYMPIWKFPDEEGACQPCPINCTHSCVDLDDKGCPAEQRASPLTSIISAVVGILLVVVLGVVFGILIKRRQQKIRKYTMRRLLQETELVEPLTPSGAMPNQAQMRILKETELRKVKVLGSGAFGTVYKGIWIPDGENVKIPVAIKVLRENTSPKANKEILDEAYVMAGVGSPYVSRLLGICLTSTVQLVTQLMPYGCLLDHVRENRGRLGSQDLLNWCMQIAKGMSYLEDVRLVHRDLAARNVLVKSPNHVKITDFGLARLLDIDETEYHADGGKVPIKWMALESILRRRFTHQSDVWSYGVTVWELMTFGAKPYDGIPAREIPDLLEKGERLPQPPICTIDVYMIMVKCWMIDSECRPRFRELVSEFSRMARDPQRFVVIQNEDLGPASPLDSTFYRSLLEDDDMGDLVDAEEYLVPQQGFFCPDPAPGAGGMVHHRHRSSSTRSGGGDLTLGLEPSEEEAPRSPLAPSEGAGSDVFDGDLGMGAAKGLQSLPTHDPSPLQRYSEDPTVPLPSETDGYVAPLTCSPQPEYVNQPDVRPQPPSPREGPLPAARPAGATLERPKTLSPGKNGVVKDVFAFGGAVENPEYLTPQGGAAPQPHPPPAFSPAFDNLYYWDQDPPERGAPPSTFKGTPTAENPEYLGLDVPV

Structure (SMILES): COc1cc(/C=C(\C#N)C(N)=O)cc(CSc2nc3ccccc3s2)c1O [AG825]
- selectivity: inhibition of ErbB2 autophosphorylation versus ErbB1 (EGFR): ~60 fold
